# From patent US7728036B2, “Methods for delivery of catecholic butanes for treatment of tumors” (priority 2003, dated 2010)
# “Also recorded” adds a separate entry of the source.
# How the values were obtained:
# [1] = Tissue distribution after long-term (14 weeks) oral feeding of M4N (HPLC); type: in vivo, mice; conditions: 14 weeks continuous oral feeding of M4N food balls
# Method: Tissue Distribution and Toxicity Analysis Following Short-Term and Long-Term Oral Feeding. For short-term feeding experiments, 30 mg of M4N dissolved in 300 μL castor oil was orally administered to each of 6 mice. At 2 h, 4 h, and 8 h post-administration time points, 2 mice were sacrificed, the organs and blood were collected, and the M4N extracted and quantitated as described below. In long-term feeding experiments, mice were fed food balls consisting of M4N dissolved in corn oil and Basal Mix (Harlan Teklad; Madison, Wis.; Cat. # TD 02273) for 14 weeks. Food balls weighed 9 g and contained 242 mg M4N each. Two mice, one male and one female, were reserved for long-term drug retention studies; and fourteen mice, both male and female, were used for long-term drug toxicity studies. At the end of feeding, mice were sacrificed, the organs and blood were collected, and the M4N extracted and quantitated as described below.
# M4N Extraction and HPLC Analysis Following Oral Feeding. Organs and blood were harvested from M4N-fed mice, then frozen overnight at −80° C. Prior to freezing, gastro-intestinal organs (stomach, small intestine, colon) were cut open longitudinally and washed thoroughly with PBS to remove any contents. The following day, organs were cut into small pieces on dry ice with a razor blade, dried in a Speed-vac, then crushed into a rough powder using a mortar and pestle. Samples were extracted overnight in 100% ethanol with shaking. Samples were centrifuged and the supernatant collected. Pellets were extracted two more times in 100% ethanol overnight with shaking. The pooled ethanol extracts were evaporated on bench top for several days, then re-extracted with ethyl acetate, and dried completely in a Speed-vac. The dried samples were then analyzed quantitatively by HPLC and M4N was identified by mass spectroscopy using pure M4N as a standard.
# HPLC Quantitation of M4N. Samples from a single mouse at each time point were sent to KP Pharmaceuticals (Bloomington, Ind.) for HPLC analysis. HPLC conditions were described as follows: 35%:0.1% TFA in H2O, 65%=“CAN.” The M4N standard was prepared by diluting 10.01 mg M4N in 100 mL of CAN, then sonicating for 5 min. (2002 ng/injection). The samples were prepared by adding 400 μL EtOH and sonicating for 2 min. or until complete dissolution was achieved. The injection volume for the samples was 100 μL.
# The objective of the long-term feeding experiments was to measure the steady state levels of M4N in various mouse organs following continuous oral administration for 14 weeks. Food balls weighing approximately 9 g and containing approximately 280 mg M4N were continually fed to wild-type mice for 14 weeks. A single 9 g food ball is consumed by a single mouse in about 3 days, which translates to […] of M4N consumed or administered daily. […] Between 350 μg and 900 μg M4N per gram tissue was measured in the GI tract organs and the spleen; 15 μg/g to 30 μg/g M4N was measured in the lungs, pancreas, seminal vesicles, blood, and fat; and 5 μg/g to 13 μg/g M4N was measured in the heart, liver, kidneys, and bladder.
# [2] = mouse, in vivo
# Method: M4N Tissue Distribution Studies Using ^3H-M4N. Harlan ICR mice or C3 cell-induced tumor-bearing C57bl/6 mice were injected via tail vein or intraperitoneally with 100 μL of Cremaphor-ethanol based solvent containing 100 μCi of tritiated M4N and 60 mM of cold M4N. At the specified time post-injection, the mice were sacrificed, the organs and blood were collected, weighed, then dissolved overnight in 4 M guanidine isothiocyanate (GITC). The insoluble pellet was then further extracted with EtOH. Tritium content of both the GITC extract and the EtOH extract was measured on a Packard scintillation counter and the quantity of M4N in each organ was calculated based on the specific activity of the inoculum.
# To determine the distribution of M4N in tissues over time following a single application, and also to assess the ability to deliver M4N to a distant tumor, six C3 cell-induced tumor bearing mice (A-F) were treated i.p. with ^3H-M4N as described above. At 4 hours, 6 hours, 18 hours, and 6 days post-injection, the quantities of ^3H-M4N in various tissues and the tumors were measured.
# [3] = tested on: HPV-16 transformed immortal mouse epithelial cells (C3); conditions: intratumor injection; cited from earlier work
structure (smiles),measurement,setting,value
"COc1ccc(C[C@@H](C)[C@@H](C)Cc2ccc(OC)c(OC)c2)cc1OC [M4N, meso-1,4-bis(3,4-dimethoxyphenyl)-2,3-dimethylbutane]",M4N,[1]; Bladder,6.24 µg/g
same,M4N,[1]; Blood,23.13 µg/g
same,M4N,[1]; Caecum,440.23 µg/g
same,M4N,[1]; Fat,17.41 µg/g
same,M4N,[1]; Heart,12.62 µg/g
same,M4N,[1]; Kidneys,8.33 µg/g
same,M4N,[1]; Lg. Intestine,350.88 µg/g
same,M4N,[1]; Liver,5.89 µg/g
same,M4N,[1]; Lungs,23.09 µg/g
same,M4N,[1]; Pancreas,28.81 µg/g
same,M4N,[1]; Seminal Vesicles,16.79 µg/g
same,M4N,[1]; Small Intestine,906.27 µg/g
same,M4N,[1]; Spleen,302.78 µg/g
same,M4N,[1]; Stomach,409.27 µg/g
same,M4N tissue levels relative to levels seen at 6 hours,[2],5-10%
same,M4N per gram of wet tumor,[2]; ip,294 ng per gram of wet tumor
same,Time of peak M4N tissue levels,[2]; ip,approximately 6 hours
same,Suppression of tumor growth / tumoricidal activity,[3],substantial tumoricidal activity; also recorded: some evidence of suppression of tumor growth
